pIC50: −log10 of the molar value.
Assays:
CDK7 = target: T1, CDK7 (Homo sapiens, UniProt P50613); experiment: KINOMEscan competition binding assay; conditions: LL6 at 10 μM; read-out: Percent Control
T1 construct: purchased DiscoverX KINOMEscan
Protocol: (§1) Kd values were obtained by KINOMEscan from DiscoverX (San Diego, CA, USA). To briefly summarize, Kd was measured by a competition binding assay that quantitatively measures the ability of a compound to compete with an immobilized ligand. […] Dose response curves of 11 points are obtained for Kd values, which are measured in duplicate. See more details in the cited references [39]-[42] and see also at www.discoverx.com.

JNK3 = target: T2, JNK3 (Homo sapiens, UniProt P53779); experiment: KINOMEscan competition binding assay; conditions: LL6 at 10 μM; read-out: Percent Control
T2 construct: purchased DiscoverX KINOMEscan
T2 sequence (P53779 whole entry): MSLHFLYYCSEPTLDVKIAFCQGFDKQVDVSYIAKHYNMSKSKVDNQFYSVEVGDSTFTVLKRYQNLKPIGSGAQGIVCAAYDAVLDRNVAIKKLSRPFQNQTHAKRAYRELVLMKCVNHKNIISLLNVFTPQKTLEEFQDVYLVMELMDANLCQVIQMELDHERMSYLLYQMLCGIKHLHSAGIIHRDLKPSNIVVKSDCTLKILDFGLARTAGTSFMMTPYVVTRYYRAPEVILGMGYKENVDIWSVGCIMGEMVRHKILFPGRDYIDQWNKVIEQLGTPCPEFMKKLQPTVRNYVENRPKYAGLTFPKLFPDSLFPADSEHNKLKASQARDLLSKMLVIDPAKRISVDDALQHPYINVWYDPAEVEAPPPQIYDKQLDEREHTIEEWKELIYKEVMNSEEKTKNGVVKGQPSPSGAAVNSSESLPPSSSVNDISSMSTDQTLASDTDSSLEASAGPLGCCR
Protocol: as §1

MAPKAPK2 = target: T3, MAPKAPK2 (Homo sapiens, UniProt P49137); experiment: KINOMEscan competition binding assay; conditions: LL6 at 10 μM; read-out: Percent Control
T3 construct: purchased DiscoverX KINOMEscan
T3 sequence (P49137 whole entry): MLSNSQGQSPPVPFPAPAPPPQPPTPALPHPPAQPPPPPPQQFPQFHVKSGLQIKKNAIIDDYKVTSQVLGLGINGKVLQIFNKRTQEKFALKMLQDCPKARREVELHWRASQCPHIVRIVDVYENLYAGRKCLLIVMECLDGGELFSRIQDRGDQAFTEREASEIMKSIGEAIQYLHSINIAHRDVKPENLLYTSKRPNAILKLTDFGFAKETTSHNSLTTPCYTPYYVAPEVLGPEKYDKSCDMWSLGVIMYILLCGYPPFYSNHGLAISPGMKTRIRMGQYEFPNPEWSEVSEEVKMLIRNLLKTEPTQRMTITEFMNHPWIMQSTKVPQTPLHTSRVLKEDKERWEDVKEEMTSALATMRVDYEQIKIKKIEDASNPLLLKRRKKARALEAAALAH
Protocol: as §1

ERBB4 = target: T4, ERBB4 (Homo sapiens, UniProt Q15303); experiment: KINOMEscan competition binding assay; conditions: LL6 at 10 μM; read-out: Percent Control
T4 construct: purchased DiscoverX KINOMEscan
Protocol: as §1

FAK = target: T5, FAK (Homo sapiens, UniProt Q05397); experiment: KINOMEscan competition binding assay; conditions: LL6 at 10 μM; read-out: Percent Control
T5 construct: purchased DiscoverX KINOMEscan
Protocol: as §1

PIK3CA = target: T6, PIK3CA (Homo sapiens, UniProt P42336); experiment: KINOMEscan competition binding assay; conditions: LL6 at 10 μM; read-out: Percent Control
T6 construct: purchased DiscoverX KINOMEscan
Protocol: as §1

[1] = target: T7, JAK2(JH1domain-catalytic) (Homo sapiens, UniProt O60674); experiment: KINOMEscan competition binding assay; conditions: LL6 at 10 μM; read-out: Percent Control
T7 construct: JAK2(JH1domain-catalytic); purchased DiscoverX KINOMEscan
T7 sequence (O60674 849-1124 limits assumed): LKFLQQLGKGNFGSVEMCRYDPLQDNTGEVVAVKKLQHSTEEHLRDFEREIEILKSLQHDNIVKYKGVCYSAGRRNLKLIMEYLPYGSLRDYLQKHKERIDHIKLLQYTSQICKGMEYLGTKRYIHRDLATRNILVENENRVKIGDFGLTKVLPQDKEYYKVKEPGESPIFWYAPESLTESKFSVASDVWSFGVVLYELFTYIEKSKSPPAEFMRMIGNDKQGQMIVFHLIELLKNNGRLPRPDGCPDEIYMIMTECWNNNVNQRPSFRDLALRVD
Protocol: as §1

PAK1 = target: T8, PAK1 (Homo sapiens, UniProt Q13153); experiment: KINOMEscan competition binding assay; conditions: LL6 at 10 μM; read-out: Percent Control
T8 construct: purchased DiscoverX KINOMEscan
T8 sequence (Q13153 whole entry): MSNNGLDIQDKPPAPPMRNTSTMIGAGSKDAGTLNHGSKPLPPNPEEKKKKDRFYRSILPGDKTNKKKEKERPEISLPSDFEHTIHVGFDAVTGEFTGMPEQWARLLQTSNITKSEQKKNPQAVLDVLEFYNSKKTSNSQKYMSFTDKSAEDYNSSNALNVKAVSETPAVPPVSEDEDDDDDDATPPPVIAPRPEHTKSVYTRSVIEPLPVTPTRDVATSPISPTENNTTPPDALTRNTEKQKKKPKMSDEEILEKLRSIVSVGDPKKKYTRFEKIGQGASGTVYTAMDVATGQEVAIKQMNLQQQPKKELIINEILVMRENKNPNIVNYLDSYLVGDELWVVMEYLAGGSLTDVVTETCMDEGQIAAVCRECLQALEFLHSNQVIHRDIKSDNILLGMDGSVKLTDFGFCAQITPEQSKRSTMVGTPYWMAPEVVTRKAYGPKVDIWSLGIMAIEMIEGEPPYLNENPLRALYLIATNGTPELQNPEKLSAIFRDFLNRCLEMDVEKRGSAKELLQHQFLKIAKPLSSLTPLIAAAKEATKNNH
Protocol: as §1

[2] = target: T9, RSK2(Kin.Dom.1-N-terminal) (Homo sapiens, UniProt P51812); experiment: KINOMEscan competition binding assay; conditions: LL6 at 10 μM; read-out: Percent Control
T9 construct: RSK2(Kin.Dom.1-N-terminal); purchased DiscoverX KINOMEscan
T9 sequence (P51812 1-397 limits assumed): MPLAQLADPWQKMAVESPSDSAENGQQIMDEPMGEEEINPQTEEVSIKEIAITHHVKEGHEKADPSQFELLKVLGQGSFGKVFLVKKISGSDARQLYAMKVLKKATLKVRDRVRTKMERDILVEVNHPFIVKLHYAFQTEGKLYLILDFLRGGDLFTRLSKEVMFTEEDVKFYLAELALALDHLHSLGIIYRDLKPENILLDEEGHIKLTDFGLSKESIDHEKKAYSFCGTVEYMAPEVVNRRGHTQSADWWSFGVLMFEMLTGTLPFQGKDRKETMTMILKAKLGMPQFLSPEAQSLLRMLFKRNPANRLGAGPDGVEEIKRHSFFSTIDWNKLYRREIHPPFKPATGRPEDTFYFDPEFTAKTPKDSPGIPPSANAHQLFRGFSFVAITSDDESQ
Protocol: as §1

PCTK1 = target: T10, PCTK1 (Homo sapiens, UniProt Q00536); experiment: KINOMEscan competition binding assay; conditions: LL6 at 10 μM; read-out: Percent Control
T10 construct: purchased DiscoverX KINOMEscan
T10 sequence (Q00536 whole entry): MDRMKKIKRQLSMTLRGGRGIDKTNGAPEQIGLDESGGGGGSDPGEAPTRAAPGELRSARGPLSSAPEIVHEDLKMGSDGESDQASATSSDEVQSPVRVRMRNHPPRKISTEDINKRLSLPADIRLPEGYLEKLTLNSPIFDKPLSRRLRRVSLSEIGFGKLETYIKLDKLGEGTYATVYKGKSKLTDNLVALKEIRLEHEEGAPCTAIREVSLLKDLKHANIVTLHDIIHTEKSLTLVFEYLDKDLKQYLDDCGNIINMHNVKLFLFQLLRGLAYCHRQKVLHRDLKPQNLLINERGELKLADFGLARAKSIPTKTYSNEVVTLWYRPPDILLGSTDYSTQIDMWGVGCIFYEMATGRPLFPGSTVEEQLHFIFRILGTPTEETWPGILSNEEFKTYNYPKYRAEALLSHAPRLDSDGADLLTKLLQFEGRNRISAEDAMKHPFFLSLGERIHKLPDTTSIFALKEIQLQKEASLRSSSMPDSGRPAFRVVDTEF
Protocol: as §1

MAP3K4 = target: T11, MAP3K4 (Homo sapiens, UniProt Q9Y6R4); experiment: KINOMEscan competition binding assay; conditions: LL6 at 10 μM; read-out: Percent Control
T11 construct: purchased DiscoverX KINOMEscan
T11 sequence (Q9Y6R4 whole entry): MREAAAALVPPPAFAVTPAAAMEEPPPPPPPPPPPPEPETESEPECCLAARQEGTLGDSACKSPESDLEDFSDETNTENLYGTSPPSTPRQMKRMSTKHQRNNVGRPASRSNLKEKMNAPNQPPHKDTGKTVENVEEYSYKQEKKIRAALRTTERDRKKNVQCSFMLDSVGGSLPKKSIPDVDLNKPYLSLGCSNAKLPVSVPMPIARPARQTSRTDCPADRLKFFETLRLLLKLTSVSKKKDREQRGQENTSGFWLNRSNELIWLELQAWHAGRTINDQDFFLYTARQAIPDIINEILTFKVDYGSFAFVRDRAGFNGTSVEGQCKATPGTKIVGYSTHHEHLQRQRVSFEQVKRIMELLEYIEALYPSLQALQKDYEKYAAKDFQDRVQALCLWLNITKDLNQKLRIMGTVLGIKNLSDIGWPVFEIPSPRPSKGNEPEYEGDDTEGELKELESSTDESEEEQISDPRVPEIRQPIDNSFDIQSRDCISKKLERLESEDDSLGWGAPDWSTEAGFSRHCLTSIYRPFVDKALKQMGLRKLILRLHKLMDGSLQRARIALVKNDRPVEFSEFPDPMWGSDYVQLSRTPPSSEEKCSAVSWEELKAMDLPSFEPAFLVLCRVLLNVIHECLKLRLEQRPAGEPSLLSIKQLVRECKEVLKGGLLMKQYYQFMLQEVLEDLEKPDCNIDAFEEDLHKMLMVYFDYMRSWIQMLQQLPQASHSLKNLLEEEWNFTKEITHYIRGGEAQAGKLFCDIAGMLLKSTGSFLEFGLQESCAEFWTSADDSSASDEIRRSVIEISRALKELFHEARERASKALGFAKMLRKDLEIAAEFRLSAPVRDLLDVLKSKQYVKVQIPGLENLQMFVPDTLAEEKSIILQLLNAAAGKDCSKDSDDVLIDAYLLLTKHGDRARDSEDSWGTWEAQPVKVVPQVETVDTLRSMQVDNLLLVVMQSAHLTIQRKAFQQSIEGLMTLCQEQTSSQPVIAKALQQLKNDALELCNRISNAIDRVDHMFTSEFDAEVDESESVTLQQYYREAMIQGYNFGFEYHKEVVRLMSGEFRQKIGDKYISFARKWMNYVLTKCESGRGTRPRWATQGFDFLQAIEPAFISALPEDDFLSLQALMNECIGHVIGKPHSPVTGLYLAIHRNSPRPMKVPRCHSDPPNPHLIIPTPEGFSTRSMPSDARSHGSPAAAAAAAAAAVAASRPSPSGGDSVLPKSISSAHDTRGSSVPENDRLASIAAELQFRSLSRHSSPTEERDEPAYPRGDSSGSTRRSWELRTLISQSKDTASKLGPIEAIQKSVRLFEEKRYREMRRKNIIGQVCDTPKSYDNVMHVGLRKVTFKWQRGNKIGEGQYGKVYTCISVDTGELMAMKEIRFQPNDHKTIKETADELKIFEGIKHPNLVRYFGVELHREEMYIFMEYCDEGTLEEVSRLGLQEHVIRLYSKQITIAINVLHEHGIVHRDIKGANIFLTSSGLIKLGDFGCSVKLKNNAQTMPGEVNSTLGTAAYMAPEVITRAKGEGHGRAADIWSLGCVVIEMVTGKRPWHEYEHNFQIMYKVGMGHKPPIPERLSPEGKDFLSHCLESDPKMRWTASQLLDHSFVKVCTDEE
Protocol: as §1

[3] = test system: H1944 and A549 xenograft tumors; experiment: NSCLC xenograft tumor model; format: in vivo, NOD/SCID mice; conditions: 80 mg/kg
Protocol: All animal experiments were performed according to protocols approved by the Seoul National University Institutional Animal Care and Use Committee. Mice were fed standard mouse chow and water ad libitum and housed in temperature- and humidity-controlled facilities with a 12-h light/12-h dark cycle. For xenograft experiments, H1944 and A549 cells (1×10^6 cells/spot, diluted in equal amounts of PBS and Matrigel) were subcutaneously injected into the right flank of 6-week-old non-obese diabetic-severe combined immunodeficiency (NOD/SCID) mice. After the tumor volume reached 50-150 mm^3, the mice were randomly grouped and treated with vehicle [10% DMSO in 60% polyethylene glycol (PEG) 400 solution] or LL6 (80 mg/kg) 6 days per week for 2 weeks. Tumor growth was determined by measuring the short and long diameters of the tumor with a caliper, and body weight was measured once or twice per week to monitor toxicity. Additionally, to evaluate the effect of LL6 on mutant Kras-driven lung tumorigenesis, 2-month-old Kras^G12D/+ transgenic mice were randomized and treated with vehicle or LL6 (80 mg/kg) for 8 weeks. The mice were euthanized, and tumor formation was evaluated and compared with that of the vehicle-treated control group. Microscopic evaluations of the H&E-stained lung tissue were also performed to measure mean tumor number (N) and volume (V) in a blinded fashion. The number and size of tumors were calculated in five sections uniformly distributed throughout each lung. In both animal experiments, the tumor volume and burden of each sample were calculated using the following formulas: Tumor volume (mm^3) = (short diameter)^2 × (long diameter) × 0.5; Tumor burden (mm^3) = number of tumors × the average of tumor volume.

NSCLC cells = experiment: Anchorage-independent (soft agar) colony formation assay; format: cell-based, human; conditions: subset of NSCLC cells
Protocol: Cells (2-3 × 10^3 cells/well) were mixed with sterile 1% agar solution (final concentration of 0.4%) and poured onto 1% base agar in 24-well plates. After solidification of the top agar, LL6 was diluted in complete medium and added to the agar. Cells embedded in the top agar were incubated for 10-14 days at 37 °C with 5% CO2. The LL6-containing medium was changed twice a week. After incubation, the colonies were stained with MTT solution, imaged, and counted using ImageJ software (National Institutes of Health, Bethesda, […], USA).

Src = experiment: Western blot, phosphorylation of Src in H1944 and A549 cells; format: cell-based, human; conditions: 2.5 μM
Protocol: Before harvesting, the cells were stimulated with 10% FBS for 20 min. […] Equal amounts of protein (20 μg) were subjected to 8% SDS-PAGE and electrically transferred onto polyvinylidene difluoride membranes (Bio-Rad Laboratories, Hercules, CA, USA). Membranes were blocked with blocking buffer (3% BSA in Tris-buffered saline containing 0.1% Tween-20 [TBST]) for 1 h at room temperature. The membranes were incubated with primary antibodies diluted in 3% BSA in TBST (1:1,000) overnight at 4 °C, washed multiple times with TBST, and incubated with secondary antibodies diluted in 3% nonfat dry milk in TBST (1:5,000) for 1 h at room temperature. The membranes were washed multiple times with TBST and visualized using an enhanced chemiluminescence detection kit (Thermo Fisher Scientific). Densitometric analysis was performed using ImageJ software.

H226Br cells = experiment: MTT assay, viability of H226Br cells; format: cell-based; conditions: Homo sapiens, 72 h, three days, read-out: IC50 against the viability
Protocol: (§2) Cells were seeded into 96-well plates at a density of 1-2 × 10^3 cells/well and incubated for 24 h. Cells were treated with vehicle or various concentrations of test compounds for two (PC9 and PC9/ER cells) or three (other cells) days. Cells were further incubated with MTT solution (final concentration of 500 μg/mL) for 4 h at 37 °C. The formazan products were dissolved in dimethyl sulfoxide (DMSO), and the absorbance was measured at 570 nm. The data are presented as a percentage of the control group.

H1299 cells = experiment: MTT assay, viability of H1299 cells; format: cell-based; conditions: Homo sapiens, NCI-H1299, 72 h, three days, read-out: IC50 against the viability
Protocol: as §2

T1 sequence (P50613 whole entry): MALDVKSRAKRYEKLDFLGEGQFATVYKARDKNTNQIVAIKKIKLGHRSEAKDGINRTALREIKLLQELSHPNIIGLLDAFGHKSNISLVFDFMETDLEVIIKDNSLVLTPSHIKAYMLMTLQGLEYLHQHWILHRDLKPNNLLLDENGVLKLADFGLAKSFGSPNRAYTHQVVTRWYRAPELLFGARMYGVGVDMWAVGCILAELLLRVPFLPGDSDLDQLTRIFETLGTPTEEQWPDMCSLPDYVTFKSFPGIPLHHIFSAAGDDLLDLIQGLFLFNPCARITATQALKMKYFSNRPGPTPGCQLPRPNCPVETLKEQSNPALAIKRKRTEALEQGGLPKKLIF

`Nc1ncnc2c1c(-c1ccc(Cl)cc1)nn2CCn1cc(COc2ccc(Nc3nccc(Nc4cnc5ccccc5c4)n3)cc2)nn1` [LL6] gave a remaining binding at 10 µM (CDK7) of 56%, a remaining binding at 10 µM (JNK3) of 42% and a remaining binding at 10 µM (MAPKAPK2) of 100%. It also gave a remaining binding at 10 µM (ERBB4) of 40%, a remaining binding at 10 µM (FAK) of 73% and a remaining binding at 10 µM (PIK3CA) of 100%. The remaining binding at 10 µM [1] was 100%, the remaining binding at 10 µM (PAK1) was 100% and the remaining binding at 10 µM [2] was 25%. The remaining binding at 10 µM (PCTK1) was 78%, the remaining binding at 10 µM (MAP3K4) was 75% and the “tumor growth and weight” value ([3]; H1944 and A549 xenografts, 6 days per week for 2 weeks) was “significantly reduced”. For the same compound, the “expression of phosphorylated IGF-1R and Src in tumors” value ([3]; Western blot of xenograft tumors) was “substantially suppressed”, the body weight ([3]; xenograft-bearing mice) was “minimal changes” and the “colony formation, anchorage-independent” value (NSCLC cells) was “significantly suppressed”. For the same compound, the “activation (phosphorylation) of Src” value (Src) was “efficiently suppressed”, the pIC50 (H226Br cells) was 5.36 and the pIC50 (H1299 cells) was 5.53.

— article PMC7778606, “Development of the phenylpyrazolo[3,4-d]pyrimidine-based, insulin-like growth factor receptor/Src/AXL-targeting small molecule kinase inhibitor” (Theranostics, 2021)
